Measured values taken from patent publication US20240391959A1, “BICYCLIC PEPTIDE LIGANDS […] FOR TRANSFERRIN RECEPTOR 1 (TfR1)” (BicycleTx Limited, priority 2020, published 2024).
Starred links: 1 amine or outer side, 2 acyl side, 3 side chain; linkers in the order of their positions; H or OH if unused. Positions of bridges follow the written chain, without caps; N, C: chain ends. Residues, ends and D or L forms follow the SMILES beside them. TATA = O=C(CC[*:1])N1CN(C(=O)CC[*:2])CN(C(=O)CC[*:3])C1

Experiments:
cynomolgus TfR1 [1] = assay type: binding
cynomolgus TfR1 [2] = assay type: binding; remark: listed apart in the source
human TfR1 [3] = molecular target: T1, human TfR1 (Homo sapiens, UniProt P02786); assay: biochemical; assay type: binding; design: His6-tagged TfR1 (a.a. 89-760) (ACRO Biosystems, CD1-H5243 and TFR-C524a); His6; purchased R&D Systems or Acro Biosystems 2474-TR or CD1-H5243; settings: Human TfR1 Kd (nM)
Target sequence in this assay (P02786 89-760): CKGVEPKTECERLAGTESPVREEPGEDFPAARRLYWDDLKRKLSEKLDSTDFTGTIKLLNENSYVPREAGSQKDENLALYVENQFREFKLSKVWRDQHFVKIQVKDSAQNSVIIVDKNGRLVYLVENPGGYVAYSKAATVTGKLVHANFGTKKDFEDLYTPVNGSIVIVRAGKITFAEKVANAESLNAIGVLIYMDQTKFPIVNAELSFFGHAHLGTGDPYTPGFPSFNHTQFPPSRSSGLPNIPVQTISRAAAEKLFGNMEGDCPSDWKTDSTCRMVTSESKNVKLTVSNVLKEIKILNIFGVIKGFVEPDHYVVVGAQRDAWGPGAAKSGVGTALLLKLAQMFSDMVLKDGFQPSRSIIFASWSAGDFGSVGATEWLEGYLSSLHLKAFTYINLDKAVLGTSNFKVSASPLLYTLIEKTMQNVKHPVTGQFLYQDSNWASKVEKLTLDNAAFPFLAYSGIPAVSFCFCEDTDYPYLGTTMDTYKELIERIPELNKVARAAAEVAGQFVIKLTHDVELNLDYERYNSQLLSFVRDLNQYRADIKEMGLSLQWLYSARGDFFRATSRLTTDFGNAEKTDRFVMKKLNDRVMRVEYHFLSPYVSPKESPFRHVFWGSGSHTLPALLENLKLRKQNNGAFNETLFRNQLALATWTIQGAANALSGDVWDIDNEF

human TfR1 [4] = molecular target: T1, human TfR1; assay: biochemical; assay type: binding; design: His6-tagged TfR1 (a.a. 89-760) (ACRO Biosystems, CD1-H5243 and TFR-C524a); His6; purchased R&D Systems or Acro Biosystems 2474-TR or CD1-H5243; settings: Human TfR1 Ki (nM)
Target sequence in this assay (P02786 89-760): as above

human TfR1 [5] = molecular target: T1, human TfR1; assay: TfR1 inhibition assay (Alpha assay, transferrin inhibition); settings: inhibition of fluorescently labelled human transferrin binding; read-out: Geomean IC50 (μM) Human TfR1
Procedure: TfR1 inhibitory activity of peptides of the invention (IC50) was determined using Alpha assay, in accordance with the following method. Proteins, peptides and Alpha reagents were prepared to 5× concentration and 5 μl of each reagent added to 25 μl total volume in white 384-well Optiplate to make 1× final concentration. Fluorescently labelled human transferrin (Invitrogen, T2871) was diluted to 2.5 nM in 25 mM HEPES with 100 mM NaCl, 4 mM CaCl2, 0.5% BSA and 0.05% P20, pH 7.4. Human or cynomolgus TfR1 protein was diluted to 50 nM and unlabelled human transferrin (R&D Systems, 2914-HT) was diluted to 500 nM in the same assay buffer. Non-labelled peptides from DMSO stock were diluted 20-fold in the same assay buffer, followed by 1 in 3 serial dilution in assay buffer containing 5% DMSO to give 11-different concentrations. 5 μl fluorescently labelled transferrin, 5 μl human or cynomolgus TfR1, 5 μl non-labelled peptide or unlabelled human transferrin (R&D Systems, 2914-HT) were added to white 384-well Optiplate and incubated for 30 min. Anti-FITC Acceptor (PerkinElmer, AL127) was diluted 50-fold in assay buffer, 5 μl added to assay plate and incubated for 30 min. […] Luminescence measurements were conducted on a BMG PHERAstar FS or FSX equipped with an AlphaScreen 520-620 module at 25° C. following excitation at 680 nm. […]
Target sequence in this assay (P02786 whole entry): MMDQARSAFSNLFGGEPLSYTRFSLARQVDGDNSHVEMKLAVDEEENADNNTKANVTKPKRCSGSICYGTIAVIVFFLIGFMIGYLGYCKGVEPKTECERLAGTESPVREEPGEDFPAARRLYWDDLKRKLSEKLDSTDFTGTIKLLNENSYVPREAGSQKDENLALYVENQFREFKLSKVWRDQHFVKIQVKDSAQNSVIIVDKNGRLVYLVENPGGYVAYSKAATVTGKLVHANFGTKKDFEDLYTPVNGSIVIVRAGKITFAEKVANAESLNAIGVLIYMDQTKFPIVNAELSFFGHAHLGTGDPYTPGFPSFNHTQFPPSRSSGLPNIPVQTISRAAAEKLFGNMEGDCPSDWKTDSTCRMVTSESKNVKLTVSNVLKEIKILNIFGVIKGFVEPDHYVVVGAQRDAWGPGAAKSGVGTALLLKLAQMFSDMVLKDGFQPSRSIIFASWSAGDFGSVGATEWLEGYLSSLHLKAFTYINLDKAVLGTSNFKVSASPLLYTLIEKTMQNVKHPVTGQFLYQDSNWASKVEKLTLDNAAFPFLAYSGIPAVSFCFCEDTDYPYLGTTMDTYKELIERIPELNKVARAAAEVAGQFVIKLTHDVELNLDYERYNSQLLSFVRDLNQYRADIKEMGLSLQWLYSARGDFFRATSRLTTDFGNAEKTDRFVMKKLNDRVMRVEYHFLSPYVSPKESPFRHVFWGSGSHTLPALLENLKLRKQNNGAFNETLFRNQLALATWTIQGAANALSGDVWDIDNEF

| IC50 (human TfR1 [5]) [µM] | SMILES | Kd (cynomolgus TfR1 [1]) [nM] | Ki (cynomolgus TfR1 [2]) [nM] | Kd (human TfR1 [3]) [nM] | Ki (human TfR1 [4]) [nM] |
| --- | --- | --- | --- | --- | --- |
|  | CC[C@H](C)[C@@H]1NC(=O)[C@@H]2CSCC(=O)N3CN(CN(C3)C(=O)CSC[C@@H](C(=O)N[C@@H](C)C(N)=O)NC(=O)[C@H](Cc3ccc(O)cc3)NC(=O)[C@H](CO)NC1=O)C(=O)CSC[C@H](NC(=O)[C@H](C)N)C(=O)N[C@@H](CO)C(=O)N1CCC[C@H]1C(=O)N[C@@H](CC(=O)O)C(=O)N[C@@H](C)C(=O)N[C@@H](Cc1c[nH]cn1)C(=O)N[C@@H](CC(C)C)C(=O)NCC(=O)N2 [BCY15468, A-(SEQ ID NO: 9)-A] | 4020 | 1230 | 29 | 103 |
| 1.21 | CC[C@H](C)[C@@H]1NC(=O)[C@H](Cc2ccccc2)NC(=O)[C@H](C)NC(=O)[C@H](CC(C)C)NC(=O)CNC(=O)[C@@H]2CSCCC(=O)N3CN(CN(C3)C(=O)CCSC[C@@H](C(=O)N[C@@H](C)C(N)=O)NC(=O)[C@H](CCC(=O)O)NC1=O)C(=O)CCSC[C@H](NC(=O)[C@H](C)N)C(=O)N[C@@H](CCCNC(=N)N)C(=O)N[C@@H](CCC(=O)O)C(=O)N[C@@H](Cc1ccccc1)C(=O)N[C@@H](Cc1ccccc1)C(=O)N[C@@H](CC(=O)O)C(=O)N[C@@H]([C@@H](C)O)C(=O)N2 [BCY12452, A-(SEQ ID NO: 2)-A] (H-ACREFFDTCGLAFIECA-NH2; linker 2-9-16 via TATA; N-terminus and C-terminus assumed) |  |  |  |  |
